Patent US8580525B2, “Methods of screening for LTRPC7 modulators” (The Queen's Medical Center, priority 2000, dated 2013)
“Also recorded” adds a separate entry of the source.

Experiments:
Assay type in all cases: cell-based
[1] = target: T1, LTRPC7 (Mus musculus, UniProt Q923J1); assay: Equimolar substitution of 10 mM Ca^2+ by other divalent metal ions, whole-cell patch-clamp; conditions: 10 mM test cation replacing 10 mM Ca^2+, HEK-293 over-expressing LTRPC7; for effect on outward current / effect on inward current: 60 s; for effect on outward current: +80 mV; for effect on inward current / increase in inward current compared to Ca^2+: -80 mV; for increase in inward current compared to Ca^2+: no Mg^2+
T1 construct: expressed in transfected cells
Description: (§1) For patch-clamp experiments, cells grown on glass coverslips were transferred to the recording chamber and kept in a standard modified Ringer's solution of the following composition (in mM): NaCl 145, KCl 2.8, CsCl 10, CaCl2 1, MgCl2 2, glucose 10, Hepes.NaOH 10, pH 7.2. In some experiments, nominally Ca^2+ and/or Mg^2+-free extracellular solutions or isotonic Ca^2+ solutions (120 mM CaCl2) were applied by pressure ejection from wide-tipped pipettes. Intracellular pipette-filling solutions contained (in mM): Cs-glutamate 145, NaCl 8, MgCl2 1, Cs-BAPTA 10, pH 7.2 adjusted with CsOH. In some experiments, Cs-glutamate was replaced equimolarly by K-glutamate or N-methyl-D-glucamine-chloride. Patch-clamp experiments were performed in the tight-seal whole-cell configuration at 21-25° C. High-resolution current recordings were acquired by a computer-based patch-clamp amplifier system (EPC-9, HEKA, Lambrecht, Germany). Sylgard-coated patch pipettes had resistances between 2-4 M after filling with the standard intracellular solution. Immediately following establishment of the whole-cell configuration, voltage ramps of 50 ms duration spanning the voltage range of −100 to +100 mV were delivered from a holding potential of 0 mV at a rate of 0.5 Hz over a period of 200 to 400 seconds. All voltages were corrected for a liquid junction potential of 10 mV between external and internal solutions when internal solutions contained glutamate. Currents were filtered at 2.3 kHz and digitized at 100 μs intervals. Capacitive currents and series resistance were determined and corrected before each voltage ramp using the automatic capacitance compensation of the EPC-9. The low-resolution temporal development of currents at a given potential was extracted from individual ramp current records by measuring the current amplitudes at voltages of −80 mV or +80 mV.
LTRPC7 represents an ion channel that is selective for divalent cations at negative membrane potentials and its activity is regulated by intracellular levels of Mg.nucleotides (Nadler et al., 2001). Although the channel readily permeates monovalent ions upon removal of all divalent ions, inward currents carried by LTRPC7 under physiological conditions are largely carried by the dominant extracellular ion species Ca^2+ and Mg^2+. Ion currents carried by LTRPC7 have therefore been designated MagNuM (for Magnesium.Nucleotide-regulated Metal ion currents). In order to assess the permeation properties of LTRPC7 for other divalent ions, we measured ionic currents in substitution experiments, where 10 mM Ca^2+ was replaced with 10 mM of other divalent cations (FIG. 7). In these experiments, HEK-293 cells expressing LTRPC7 were kept in a bath solution containing 10 mM Ca^2+, without Mg^2+, and development of MagNuM was monitored by whole-cell patch-clamp as described previously (Nadler et al., 2001). When the current had reached maximal amplitude, cells were transiently exposed to an extracellular solution containing 10 mM of the test cation applied via a puffer pipette for a period of 60 s.

[2] = target: T1, LTRPC7; assay: Permeation of divalent metal ions in isotonic solutions, whole-cell patch-clamp; conditions: for effect on outward current / effect on inward current: isotonic solution (120 mM) of test cation for 60 s, HEK-293 over-expressing LTRPC7; for effect on outward current: +80 mV; for effect on inward current: -80 mV; for permeation sequence based on peak inward currents: isotonic solutions
Description: as §1
The use of isotonic solutions to probe divalent cation entry through LTRPC7 avoids complications in permeation properties arising from ion-ion interactions, and therefore allows unequivocal interpretation of inward currents—maintained or increased inward currents can only be consistent with permeation of the available extracellular cation. Isotonic solutions of 120 mM of each divalent ion yielded appropriate osmolarities within 10 mOsm from the standard bath and pipette solutions. In this series of experiments, the cells were bathed in the standard external solution containing 1 mM Ca^2+ and 2 mM Mg^2+. At 200 s, when MagNuM had reached its full amplitude, isotonic solutions of each transition metal were applied for 60 s via a puffer pipette.

[3] = target: T1, LTRPC7; assay: Permeation and block by trivalent metal ions, whole-cell patch-clamp; conditions: for suppression of inward or outward currents carried by LTRPC7: 10 μM (data not shown); for effect on outward currents / effect on inward currents: external solution with 10 mM Ca^2+ without Mg^2+; for effect on outward currents: +80 mV; for effect on inward currents: -80 mV
Description: as §1
We next tested a series of toxic trivalent metal ions (FIG. 10), which we suspected to not permeate through LTRPC7.

[4] = target: T1, LTRPC7; assay: Simultaneous patch-clamp of MagNuM and fura-2 measurement of [Ca^2+]i, block by Mg.ATP; conditions: 3 mM Mg.ATP in internal solution
Text: Based on the above permeation data, we conclude that LTRPC7 must be viewed as a potential entry pathway for a wide variety of trace and toxic metal ions. […] We therefore performed two sets of experiments to address this issue. In the first, we assayed Ca^2+ permeation of LTRPC7 under conditions in which intracellular Ca^2+ is left unbuffered and LTRPC7 is activated or suppressed by manipulation of patch pipette [ATP]i. To this end, HEK-293 cells expressing LTRPC7 were kept in a bath solution with 2 mM each of Ca^2+ and Mg^2+ and were perfused with a Cs-glutamate-based internal solution containing 200 μM fura-2. Simultaneous development of MagNuM was monitored under whole-cell patch-clamp and delivering, from a holding potential of 0 mV, repetitive voltage ramps that spanned −100 to +100 mV over 50 ms at a rate of 0.5 Hz. When Mg.ATP was absent in the pipette, MagNuM rapidly activated, as witnessed by the increase in both inward and outward currents (FIG. 11A) as well as its characteristic current-voltage relationship (FIG. 11B). […] The progressive decrease in amplitude of hyperpolarization-driven changes in [Ca^2+]i observed under these conditions is likely due to increased Ca^2+ buffering as fura-2 equilibrates with the cytosol at its final concentration of 200 μM. […]

[5] = target: T1, LTRPC7; assay: Mn^2+ quench of fura-2 fluorescence in intact cells; conditions: 1 mM Mn^2+, initial 60 s
Description: In the second approach, we assayed LTRPC7 activity in intact cells using Mn^2+ quench of fura-2 fluorescence (FIG. 11D). In this experiment, HEK-293 cells over-expressing LTRPC7 were loaded with fura-2-AM and bathed in standard external solution with 1 mM Ca^2+ and 2 mM Mg^2+. Ca^2+-independent fluorescence was monitored at 360 nm (the isosbestic wavelength of fura-2) and after 120 s, an external solution containing 1 mM Mn^2+, 1 mM Ca^2+, and 0 Mg^2+ was applied for 180 s. To determine baseline quench levels, this protocol was applied to HEK-293 cells that were transfected with the same tetracycline-inducible recombinant LTRPC7 construct, but remained uninduced. As clearly shown in FIG. 11D, the application of 1 mM Mn^2+ caused a pronounced quench of the 360 nm signal in HEK-293 cells induced to express LTRPC7 (n=5), whereas Mn^2+-induced quench of the 360 nm signal in uninduced cells (n=5) was noticeable but much less dramatic. Linear regression over the initial 60 s of Mn^2+ exposure yielded a 10-fold higher rate of Mn^2+-induced quench of fura-2 fluorescence in induced cells (28%/o/min) as compared to uninduced cells (2.9%/min).

T1 sequence (Q923J1 2-1863 limits assumed): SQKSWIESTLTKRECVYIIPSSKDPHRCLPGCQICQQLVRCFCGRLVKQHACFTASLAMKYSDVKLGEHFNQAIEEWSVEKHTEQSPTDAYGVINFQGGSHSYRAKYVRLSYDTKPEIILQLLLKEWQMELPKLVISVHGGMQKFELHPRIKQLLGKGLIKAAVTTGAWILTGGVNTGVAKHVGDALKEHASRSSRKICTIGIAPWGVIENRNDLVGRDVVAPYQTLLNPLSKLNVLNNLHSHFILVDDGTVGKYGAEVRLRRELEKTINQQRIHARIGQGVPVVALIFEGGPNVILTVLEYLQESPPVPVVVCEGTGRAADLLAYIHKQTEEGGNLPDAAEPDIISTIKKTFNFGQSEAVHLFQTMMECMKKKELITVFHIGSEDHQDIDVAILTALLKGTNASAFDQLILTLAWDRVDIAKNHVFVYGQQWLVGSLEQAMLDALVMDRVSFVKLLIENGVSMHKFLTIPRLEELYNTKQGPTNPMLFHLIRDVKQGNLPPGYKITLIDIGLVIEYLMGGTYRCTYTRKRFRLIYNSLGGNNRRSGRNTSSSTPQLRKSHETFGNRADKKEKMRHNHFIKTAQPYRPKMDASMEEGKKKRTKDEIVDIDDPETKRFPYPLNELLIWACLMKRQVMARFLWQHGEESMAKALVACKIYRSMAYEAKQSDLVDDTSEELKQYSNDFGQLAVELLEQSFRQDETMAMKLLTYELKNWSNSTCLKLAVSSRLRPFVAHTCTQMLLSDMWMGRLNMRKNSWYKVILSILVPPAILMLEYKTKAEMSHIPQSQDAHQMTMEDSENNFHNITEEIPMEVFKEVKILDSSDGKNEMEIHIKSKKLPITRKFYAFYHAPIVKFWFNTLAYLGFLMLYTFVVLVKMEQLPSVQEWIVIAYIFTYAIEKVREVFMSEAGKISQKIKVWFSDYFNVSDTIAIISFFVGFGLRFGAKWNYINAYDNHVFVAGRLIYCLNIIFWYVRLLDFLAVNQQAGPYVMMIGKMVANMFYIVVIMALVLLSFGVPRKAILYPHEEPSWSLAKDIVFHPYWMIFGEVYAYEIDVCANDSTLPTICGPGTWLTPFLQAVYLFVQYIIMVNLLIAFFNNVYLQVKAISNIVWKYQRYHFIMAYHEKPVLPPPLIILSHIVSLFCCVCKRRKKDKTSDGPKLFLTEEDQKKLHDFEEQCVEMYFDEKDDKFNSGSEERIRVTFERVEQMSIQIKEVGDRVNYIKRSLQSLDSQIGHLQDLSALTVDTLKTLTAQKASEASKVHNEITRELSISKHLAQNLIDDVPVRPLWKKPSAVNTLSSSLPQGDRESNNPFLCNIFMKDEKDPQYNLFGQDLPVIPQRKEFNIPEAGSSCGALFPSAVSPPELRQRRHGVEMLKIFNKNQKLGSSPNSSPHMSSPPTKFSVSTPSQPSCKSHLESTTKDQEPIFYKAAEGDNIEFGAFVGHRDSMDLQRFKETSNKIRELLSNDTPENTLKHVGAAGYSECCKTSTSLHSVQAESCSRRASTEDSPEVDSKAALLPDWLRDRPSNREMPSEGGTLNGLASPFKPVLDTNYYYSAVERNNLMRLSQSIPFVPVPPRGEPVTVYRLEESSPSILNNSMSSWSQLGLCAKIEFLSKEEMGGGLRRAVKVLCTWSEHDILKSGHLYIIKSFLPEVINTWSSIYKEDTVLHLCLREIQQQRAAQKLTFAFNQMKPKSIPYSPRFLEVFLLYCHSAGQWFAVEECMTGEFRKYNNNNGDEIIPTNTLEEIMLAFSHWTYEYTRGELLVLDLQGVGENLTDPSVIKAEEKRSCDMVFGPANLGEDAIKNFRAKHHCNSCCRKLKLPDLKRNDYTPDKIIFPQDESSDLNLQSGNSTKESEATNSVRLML

increase in inward current compared to Ca^2+ [1]	SMILES	effect on outward current [1]	effect on inward current [1]	effect on outward current [2]	effect on inward current [2]	other results
–	[Ba+2] [Ba^2+]	increase of the outward current	slight to moderate increase of the inward current	relatively minor inhibitions of the outward current	moderate increases of the inward	permeation sequence based on peak inward currents [2]: more effectively transported than Ca^2+ and Mg^2+
–	[Ca+2] [Ca^2+]	–	–	block of the outward current	increase of the inward	effect on outward current ([2]; listed as CaCl2): strongly inhibited outward currents; effect on inward current ([2]; listed as CaCl2): enhanced inward currents
–	[Cd+2] [Cd^2+]	increases of the outward current	slight to moderate increases of the inward current	–	–	effect on outward current ([1]; listed as Cd 2+): increase of the outward current; effect on inward current ([1]; listed as Cd 2+): slight to moderate increase of the inward current
–	[Gd+3] [Gd^3+]	–	–	–	–	suppression of inward or outward currents carried by LTRPC7 [3]: ineffective; relative potency as blocker of MagNuM ([3]; 10 mM, Gd^3+ versus La^3+): more potent inhibitor; also recorded: more potent blocker of MagNuM; effect on outward currents ([3]; 10 mM): completely suppressed; effect on inward currents ([3]; 10 mM): inhibited inward currents with no sign of significant permeation
–	[La+3] [La^3+]	–	–	–	–	suppression of inward or outward currents carried by LTRPC7 [3]: ineffective; effect on outward currents ([3]; 10 mM): far less effective in suppressing outward currents; effect on inward currents ([3]; 10 mM): inhibited inward currents with no sign of significant permeation
–	Nc1ncnc2c1ncn2[C@@H]1O[C@H](COP(=O)(O)OP(=O)([O-])OP(=O)([O-])O)[C@@H](O)[C@H]1O.[Mg+2] [Mg.ATP]	–	–	–	–	[Ca^2+]i (fura-2) ([4]; HEK-293 over-expressing LTRPC7): remained similarly steady; also recorded: remains at steady basal levels; LTRPC7 activity (MagNuM currents) ([4]; bath 2 mM Ca^2+ and 2 mM Mg^2+): little change in LTRPC7 activity
less than double	[Mg+2] [Mg^2+]	strongest block of outward currents; also recorded: block of the outward current	slight to moderate increase of the inward current	block of the outward current	–	–
less than double	[Mn+2] [Mn^2+]	block of outward currents; also recorded: block of the outward current	slight to moderate increase of the inward current	strong block of the outward current	gradual increase of the inward current	rate of Mn^2+-induced quench, induced compared to uninduced cells [5]: 10 fold; rate of Mn^2+-induced quench of fura-2 fluorescence ([5]; 360 nm, uninduced cells): 2.9 %/min
–	[Sr+2] [Sr^2+]	increases of the outward current	slight to moderate increases of the inward current	relatively minor inhibitions of the outward current	moderate increases of the inward	effect on outward current ([1]; listed as Sr2+): increase of the outward current; effect on inward current ([1]; listed as Sr2+): slight to moderate increase of the inward current; permeation sequence based on peak inward currents [2]: more effectively transported than Ca^2+ and Mg^2+
greater than three-fold	[Zn+2] [Zn^2+]	block of outward currents; also recorded: block of the outward current	large increase of the inward current	–	–	–

SMILES	increase in inward current compared to Ca^2+ [1]	effect on outward current [1]	effect on inward current [1]	effect on outward current [2]	effect on inward current [2]	other results
[Co+2] [Co^2+]	less than double	block of outward currents; also recorded: block of the outward current	slight to moderate increase of the inward current	strong block of the outward current	gradual increase of the inward current	–
[Ni+2] [Ni^2+]	greater than three-fold	block of outward currents; also recorded: block of the outward current	large increase of the inward current	strong block of the outward current	large increase of the inward	permeation sequence based on peak inward currents [2]: most permeant metal
